What was measured:
Type in all cases: physicochemical
[1] = Lipid nanoparticle size and polydispersity by dynamic light scattering (Malvern Zetasizer Nano ZS); conditions: LNP of cationic lipid/DSPC/cholesterol/PEG-lipid 50:10:38.5:1.5 with mRNA
Protocol: (§1) Briefly, a cationic lipid provided herein, DSPC, cholesterol, and PEG-lipid were solubilized in ethanol at a molar ratio of 50:10:38.5:1.5, and mRNA were diluted in 10 to 50 mM citrate buffer, pH=4. The LNPs were prepared at a total lipid to mRNA weight ratio of approximately 10:1 to 30:1 by mixing the ethanolic lipid solution with the aqueous mRNA solution at a volume ratio of 1:3 using a microfluidic apparatus, total flow rate ranging from 9-30 mL/min. Ethanol were thereby removed and replaced by DPBS using dialysis. Finally, the lipid nanoparticles were filtered through a 0.2 μm sterile filter.
(§2) Lipid nanoparticle size were determined by dynamic light scattering using a Malvern Zetasizer Nano ZS (Malvern UK) using a 173° backscatter detection mode. The encapsulation efficiency of lipid nanoparticles were determined using a Quant-it Ribogreen RNA quantification assay kit (Thermo Fisher Scientific, UK) according to the manufacturer's instructions.

[2] = Encapsulation efficiency of lipid nanoparticles, Quant-it Ribogreen RNA quantification assay; conditions: LNP with mRNA
Protocol: as §1, §2

[3] = Apparent pKa of LNP formulations, TNS fluorescence assay; conditions: LNP cationic lipid/DSPC/cholesterol/DMG-PEG 50/10/38.5/1.5 mol %, pH 3 to 9
Protocol: As reported in literature, the apparent pKa of LNP formulations correlates with the delivery efficiency of LNPs for nucleic acids in vivo. The apparent pKa of each formulation was determined using an assay based on fluorescence of 2-(p-toluidino)-6-napthalene sulfonic acid (TNS). LNP formulations comprising of cationic lipid/DSPC/cholesterol/DMG-PEG (50/10/38.5/1.5 mol %) in PBS were prepared as described above. TNS was prepared as a 300 uM stock solution in distilled water. LNP formulations were diluted to 0.1 mg/ml total lipid in 3 mL of buffered solutions containing 50 mM sodium citrate, 50 mM sodium phosphate, 50 mM sodium borate, and 30 mM sodium chloride where the pH ranged from 3 to 9. An aliquot of the TNS solution was added to give a final concentration of 0.1 mg/ml and following vortex mixing fluorescence intensity was measured at room temperature in a Molecular Devices Spectramax iD3 spectrometer using excitation and mission wavelengths of 325 nm and 435 nm. A sigmoidal best fit analysis was applied to the fluorescence data and the pKa value was measured as the pH giving rise to half-maximal fluorescent intensity.

Compound | polydispersity [1] | size (nm) [1] [nm] | Encapsulation Efficiency [2] [%] | Apparant Pka [3]
CCCCCCCCCCCCOCC(CN(C)CCN(CCO)C1CCCC1)OCCCCCC (stereo not drawn) [Compound 5] | 0.384 | 78.36 | 92.4 | 7.315
CCCCCCCCCCCCCCCCCCOCC(CN(CCCCCC(=O)OCCCCCCCCCC)CCN(CCO)C1CCC1)OCCCCCC (stereo not drawn) [Compound 46] | 0.039 | 103.3 | 95.9 | 6.047
CCCCCCCCCCCCCCCCOCC(CN(CCCCCC(=O)OCCCCCCCCCC)CCN(CCO)C1CCC1)OCCCCCC (stereo not drawn) [Compound 53] | 0.014 | 90.06 | 89.79 | 6.069
CCCCC/C=C\C/C=C\CCCCCCCC(=O)OCC(CCCCN(CCO)C1CCCCCC1)COC(=O)CC(CCCCCC)CCCCCCCC (stereo not drawn) [Compound 91] | 0.111 | 63.89 | 92.11 | 6.608
CCCCC/C=C\C/C=C\CCCCCCCC(=O)OCC(CN(C)CCN(CCO)C1CCC1)OC(=O)CCCCCCC/C=C\C/C=C\CCCCC (stereo not drawn) [Compound 64] | 0.075 | 73.8 | 91.6 | –
CCCCC/C=C\C/C=C\CCCCCCCC(=O)OCC(CCCCN(CCO)C1CCCCC1)COC(=O)CC(CCCCCC)CCCCCCCC (stereo not drawn) [Compound 100] | 0.055 | 64.54 | 91.24 | 6.666
CCCCCCCCCCCCOCC(O)CN(CCCCCC(=O)OCC(CCCCCC)CCCCCCCC)CCN1CCCC1 (stereo not drawn) [Compound 10] | 0.356 | 84.22 | 94.8 | –
CCCCCCCCCCCCOCC(CN(CCCCCC(=O)OCC(CCCCCC)CCCCCCCC)CCN(CCO)C1CCCC1)OCCCCCCCCCCCC (stereo not drawn) [Compound 29] | 0.110 | 53.73 | 80.1 | 5.699
CCCCCCCCCCCCOCC(CN(C)CCN(CCO)C1CCC1)OCCCCCC (stereo not drawn) [Compound 38] | 0.194 | 97.62 | 76.2 | 6.971
CCCCC/C=C\C/C=C\CCCCCCCC(=O)OCC(CCCCN(CCO)C1CCC1)COC(=O)CC(CCCCCC)CCCCCCCC (stereo not drawn) [Compound 89] | 0.04 | 69.36 | 92.56 | 6.926
CCCCCCCCCCCCOCC(CN(CCCCCC(=O)OCC(CCCCCC)CCCCCCCC)CCN(CCO)C1CC1)OCCCCCC (stereo not drawn) [Compound 22] | 0.206 | 68.67 | 83.5 | 5.457
CCCCCCC(CCCCCC)COC(=O)CCCCCN(CCN1CCC(O)C1)CC(COC(=O)CCCCC)OC(=O)CCCCC (stereo not drawn) [Compound 59] | 0.049 | 94.89 | 96.1 | –
CCCCCCCCC(CCCCCCCC)CNC(=O)CCOCC(CN(C)CCN(CCO)C1CCCCC1)OCCC(=O)NCC(CCCCCCCC)CCCCCCCC (stereo not drawn) [Compound 52] | 0.14 | 66.03 | 96.5 | –
CCCCCCCCCCCCOCC(CN(CCCCCC(=O)OCC(CCCCCC)CCCCCCCC)CCN(CCO)C1CCCCC1)OCCCCCC (stereo not drawn) [Compound 25] | 0.112 | 58.01 | 94.70 | –
CCCCCCCCCCCCOCC(CN(C)CCN(CCO)C1CCC1)OC(=O)CCCC (stereo not drawn) [Compound 40] | 0.326 | 230 | 36.4 | –
CCCCCCCCCCCCOCC(CN(CCCCCC)CCN(CCO)C1CCC1)OCCCCCCCCCCCC (stereo not drawn) [Compound 16] | 0.060 | 74.31 | 89.8 | –
CCCCCCCCC(CCCCCCCC)CNC(=O)CCOCC(CN(C)CCN(CCO)C1CCCCCC1)OCCC(=O)NCC(CCCCCCCC)CCCCCCCC (stereo not drawn) [Compound 58] | 0.032 | 56.37 | 97.3 | –
CCCCCCCCCC(CCCCC)COC(=O)CCOCC(CN(CCO)C1CCC1)OCCC(=O)OCC(CCCCCC)CCCCCCCC (stereo not drawn) [Compound 108] | 0.097 | 47.87 | 92.04 | –
CCCCCCCCCCCCOCC(CN(CCCCCC(=O)OCC(CCCCCC)CCCCCCCC)CCN1CCCCC1)OC(C)=O (stereo not drawn) [Compound 9] | 0.144 | 70.97 | 90.8 | –
CCCCCCCCCCCCOCC(CN(CCO)C1CCC1)OC(=O)CCCCC (stereo not drawn) [Compound 3] | 0.124 | 105.6 | 92.8 | –
CCCCCCCCCCC(=O)OCC(CCCCN(CCO)C1CCCCCC1)COC(=O)CC(CCCCCC)CCCCCCCC (stereo not drawn) [Compound 92] | 0.051 | 70.85 | 90.25 | –

More lines, now with the values ahead:

polydispersity [1] | size (nm) [1] [nm] | Encapsulation Efficiency [2] [%] | Apparant Pka [3] | Compound
0.063 | 59.54 | 92.91 | 6.309 | CCCCCCCCCCCCCCCC(=O)OCC(CCCCN(CCO)C1CCCCCCC1)COC(=O)CC(CCCCCC)CCCCCCCC (stereo not drawn) [Compound 88]
0.055 | 81.89 | 95.22 | – | CCCCCCCCC(CCCCCCCC)COC(=O)CCOCC(CN(C)CCN(CCO)C1CCCCC1)OCCC(=O)OCC(CCCCCCCC)CCCCCCCC (stereo not drawn) [Compound 72]
0.027 | 98.95 | 92.20 | 6.063 | CCCCCCCCC(CCCCCC)CC(=O)OCC(CCCCN(CCN(CCC)CCO)C1CCC1)COC(=O)CC(CCCCCC)CCCCCCCC (stereo not drawn) [Compound 80]
0.082 | 73.61 | 97.0 | 6.428 | CCCCCCCCC(CCCCCCCC)CC(=O)OCC(CCCCN(CCN(C)CCO)C1CCC1)COC(=O)CC(CCCCCCCC)CCCCCCCC [Compound 65]
0.107 | 53.32 | 91.0 | 6.403 | CCCCCCCCC(CCCCCCCC)CC(=O)OCC(CCCCN(CCO)C1CCC1)COC(=O)CC(CCCCCCCC)CCCCCCCC [Compound 56]
0.019 | 94.04 | 92.39 | 6.182 | CCCCCCCCC(CCCCCC)CC(=O)OCC(CCCCN(CCCC)CCN(CCO)C1CCC1)COC(=O)CC(CCCCCC)CCCCCCCC (stereo not drawn) [Compound 83]
0.011 | 74 | 92.59 | 6.204 | CCCCCCCCC(CCCCCC)CC(=O)OCC(CCCCN(CCN(CCO)CCCC)C1CCC1)COC(=O)CC(CCCCCC)CCCCCCCC (stereo not drawn) [Compound 109]
0.067 | 61.18 | 93.66 | – | CCCCCCCCC(CCCCCC)COC(=O)CCOCC(CN(CCCCCC)CCN(CCO)C1CCCCCC1)OCCC(=O)OCC(CCCCCC)CCCCCCCC (stereo not drawn) [Compound 107]
0.03 | 73.58 | 92.81 | – | CCCCCCCCCCCCCCCC(=O)OCC(CCCCN(CCO)C1CCCCC1)COC(=O)CC(CCCCCC)CCCCCCCC (stereo not drawn) [Compound 86]

— patent US11964052B2, “Lipid compounds and lipid nanoparticle compositions” (SUZHOU ABOGEN BIOSCIENCES CO., LTD., priority 2021, dated 2024)
